The target of experiment [1] is Fructose-bisphosphate aldolase (Mycobacterium tuberculosis, UniProt P9WQA3). Put plainly: Fluorescence-based biochemical high throughput dose response assay for inhibitors of the fructose-bisphosphate aldolase (FBA) of M. tuberculosis. It counts as functional.
Experiment [2] addresses T1, Trace amine-associated receptor 1 (Homo sapiens, UniProt Q96RJ0).
T1 sequence (Q96RJ0 whole entry): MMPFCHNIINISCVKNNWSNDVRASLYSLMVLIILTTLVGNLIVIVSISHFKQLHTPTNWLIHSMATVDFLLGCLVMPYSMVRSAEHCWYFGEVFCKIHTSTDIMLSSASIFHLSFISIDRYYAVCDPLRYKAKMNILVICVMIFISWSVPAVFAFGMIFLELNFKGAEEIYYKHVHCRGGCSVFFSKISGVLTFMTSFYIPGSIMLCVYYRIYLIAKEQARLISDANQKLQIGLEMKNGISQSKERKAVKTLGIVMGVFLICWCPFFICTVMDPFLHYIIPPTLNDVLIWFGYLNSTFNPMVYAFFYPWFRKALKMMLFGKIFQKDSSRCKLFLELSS
Put plainly: Fluorescence-based cell-based high throughput dose response assay to identify agonists of the human trace amine associated receptor 1 (TAAR1). It is filed as functional.

Experiment [3] can be described thus: cells. It is filed as functional, cell-based.
Experiment [4] concerns the target T1, Trace amine-associated receptor 1. Nature of the experiment: Counterscreen for agonists of the human trace amine associated receptor 1 (hTAAR1): Fluorescence-based cell-based high throughput dose response assay to identify hTAAR1 agonist that also desensitize TAAR1 receptor response. It is filed as functional. Background: A counterscreen serves to expose hits that act by an unwanted route or on another target.

Experiment [5] in a line: cells. It is filed as functional, cell-based. This is another data set of the same source.
Experiment [6] can be described thus: CEM21 lymphoblast cell cytotoxicity, dose response, cytotoxicity control for viral fusion inhibitor project, CellTiter-Glo luminescence, cherry-picked (AID 652042).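 Also: potency for signal decrease meaning cytotoxicity.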 It is filed as functional, cell-based. (In general: In ATP-based viability assays light output follows the ATP content of the culture.)
Experiment [7] is described as follows: inhibitors of HIV Env-driven cell fusion, dose response, cherry-pick (AID 652057). It is filed as functional, cell-based.
Experiment [8] in a line: ZM109 Env clade C HIV-1 fusion inhibitors, dose response, HeLa effector, CEM target cells, luciferase, cherry-pick (AID 652058). It is filed as functional, cell-based.
The nature of experiment [9]: inhibitors of clade B AD8 Env fusion, dose response, cell-based, cherry-pick (AID 652062).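 Also: luciferase signal from cell-cell fusion driven by HIV-1 clade B AD8 Env; potency is for inhibitors of fusion seen as a drop in luminescence.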 It is filed as functional.
In experiment [10] the target is 5-hydroxytryptamine receptor 2A (Mus musculus, UniProt P35363). It counts as functional, cell-based.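 Also: CHO-K1 cells with tagged receptor and beta-arrestin; agonist potency measured as compound-induced activation of the receptor.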
Experiment [11] can be described thus: A Cell Based Secondary Assay To Explore Cytotoxicity of Compounds that Sensitize Mycobacterium Tuberculosis to Beta-Lactam Antibiotics. It counts as functional.
Experiment [12] has as its system Streptococcus sp. 'group A'. Put plainly: growth inhibition of control SK(-) GAS strain, dose response, counter-screen for streptokinase expression inhibitor project, luminescence, kanamycin, BacTiterGlo, confirmation (AID 1900). It counts as functional, organism-based.
Experiment [13] has as its target Mu-type opioid receptor (Homo sapiens, UniProt P35372). It is filed as functional, cell-based.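 Also: U2OS cells with beta-arrestin recruitment to OPRM1 by beta-gal complementation.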
Experiment [14] has as its system Streptococcus. Put plainly: Group A Streptococcus viability loss, dose response, counter-screen for streptokinase expression inhibitor project, luminescence, BacTiterGlo (AID 1915).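 Also: potency for reduction of bacterial viability or growth.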 It is filed as functional, organism-based.
In experiment [15] the target is T2, Streptokinase A (Streptococcus pyogenes serotype M1, UniProt P10520).
T2 sequence (P10520 whole entry): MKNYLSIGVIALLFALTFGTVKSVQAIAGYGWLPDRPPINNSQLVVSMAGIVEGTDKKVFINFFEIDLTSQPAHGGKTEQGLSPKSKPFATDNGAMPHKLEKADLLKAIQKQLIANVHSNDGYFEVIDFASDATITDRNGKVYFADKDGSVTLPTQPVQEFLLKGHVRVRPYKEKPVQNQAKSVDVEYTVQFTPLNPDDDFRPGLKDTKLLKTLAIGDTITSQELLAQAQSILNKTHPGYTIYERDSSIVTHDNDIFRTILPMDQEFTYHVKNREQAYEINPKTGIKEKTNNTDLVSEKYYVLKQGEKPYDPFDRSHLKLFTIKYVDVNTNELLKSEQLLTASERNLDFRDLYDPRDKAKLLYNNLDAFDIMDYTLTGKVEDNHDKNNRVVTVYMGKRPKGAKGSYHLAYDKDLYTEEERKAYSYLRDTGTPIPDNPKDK
Nature of the experiment: S. pyogenes streptokinase expression inhibitors, potency, dose response, plasminogen activation absorbance, OD405 (AID 1914).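 Also: secreted streptokinase activity via plasminogen activation per viability signal from cell pellet.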 It counts as functional, Streptococcus pyogenes M1 GAS.

Experiment [16] deals with T3, Cytochrome P450 1A2 (Homo sapiens, UniProt P05177).
T3 sequence (P05177 whole entry): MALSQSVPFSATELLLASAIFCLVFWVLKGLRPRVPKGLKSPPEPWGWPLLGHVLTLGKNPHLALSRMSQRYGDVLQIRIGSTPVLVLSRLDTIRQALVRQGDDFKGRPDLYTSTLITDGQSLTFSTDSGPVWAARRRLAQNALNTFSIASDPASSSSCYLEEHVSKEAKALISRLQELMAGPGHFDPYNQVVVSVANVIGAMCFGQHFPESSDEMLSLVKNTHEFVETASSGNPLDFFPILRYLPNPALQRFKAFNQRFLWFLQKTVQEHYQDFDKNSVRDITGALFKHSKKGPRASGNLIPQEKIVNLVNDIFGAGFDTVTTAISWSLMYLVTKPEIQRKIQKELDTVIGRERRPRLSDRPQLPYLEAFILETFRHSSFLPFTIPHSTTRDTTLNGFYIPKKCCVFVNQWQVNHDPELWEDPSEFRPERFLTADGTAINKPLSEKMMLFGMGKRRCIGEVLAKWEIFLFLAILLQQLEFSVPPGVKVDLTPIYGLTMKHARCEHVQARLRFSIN

Experiment [17] deals with Phospholipase A2 (Homo sapiens, UniProt P04054). It counts as functional.
The target in experiment [18] is T4, Sentrin-specific protease 1 (Homo sapiens, UniProt Q9P0U3).
T4 sequence (Q9P0U3 whole entry): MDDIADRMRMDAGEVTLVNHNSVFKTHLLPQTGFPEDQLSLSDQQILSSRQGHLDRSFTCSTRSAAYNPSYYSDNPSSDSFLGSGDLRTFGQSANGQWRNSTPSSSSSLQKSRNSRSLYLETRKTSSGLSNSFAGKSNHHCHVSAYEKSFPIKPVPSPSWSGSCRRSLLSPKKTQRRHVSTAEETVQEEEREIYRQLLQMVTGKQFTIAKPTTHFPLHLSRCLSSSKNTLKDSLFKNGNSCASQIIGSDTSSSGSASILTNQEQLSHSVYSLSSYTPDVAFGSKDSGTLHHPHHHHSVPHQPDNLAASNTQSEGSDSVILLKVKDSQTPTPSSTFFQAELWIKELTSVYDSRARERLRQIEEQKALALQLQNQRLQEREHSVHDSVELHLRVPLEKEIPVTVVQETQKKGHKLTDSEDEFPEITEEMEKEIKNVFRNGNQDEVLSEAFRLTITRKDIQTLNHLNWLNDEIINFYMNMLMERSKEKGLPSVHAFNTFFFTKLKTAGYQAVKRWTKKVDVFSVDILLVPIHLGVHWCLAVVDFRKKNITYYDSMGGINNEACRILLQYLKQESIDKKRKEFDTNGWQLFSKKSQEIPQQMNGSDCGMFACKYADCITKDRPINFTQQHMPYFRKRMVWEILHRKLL
Nature of the experiment: potency of human SENP1 inhibitors, dose response, biochemical, kinetic FRET (AID 651697). It counts as functional. To be noted: read-out: IC50_Mean.

In experiment [19] the target is T5, Cysteine protease ATG4B (Homo sapiens, UniProt Q9Y4P1).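 Also: Fluorescence-based dose-response confirmation assay measuring inhibition of ATG4B activity.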
T5 sequence (Q9Y4P1 whole entry): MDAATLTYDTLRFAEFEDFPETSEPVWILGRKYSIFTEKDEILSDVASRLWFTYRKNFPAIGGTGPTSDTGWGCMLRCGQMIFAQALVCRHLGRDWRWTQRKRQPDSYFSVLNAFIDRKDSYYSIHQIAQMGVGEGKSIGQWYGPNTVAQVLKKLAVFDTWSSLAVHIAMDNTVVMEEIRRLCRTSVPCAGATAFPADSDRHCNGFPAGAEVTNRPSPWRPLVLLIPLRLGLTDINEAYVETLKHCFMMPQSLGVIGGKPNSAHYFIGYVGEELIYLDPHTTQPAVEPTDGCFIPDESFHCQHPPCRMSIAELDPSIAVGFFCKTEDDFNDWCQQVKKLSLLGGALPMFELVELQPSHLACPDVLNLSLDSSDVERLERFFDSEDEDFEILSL
It counts as functional.

The target of experiment [20] is T4, Sentrin-specific protease 1. Put plainly: Dose response confirmation of small molecule inhibitors of the catalytic domain of the SUMO protease, SENP1 in a FRET assay. It is filed as functional. Particulars: read-out: IC50_Mean.
Experiment [21] concerns INS1. Nature of the experiment: beta cell apoptosis inhibitors, cytokine rescue, dose response, luminescence, retest (AID 449756).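 Also: cell death triggered by IL-1 beta plus TNF-alpha plus IFN-gamma mixture; protective hits raise ATP signal compared with cytokine alone wells.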 It counts as functional, cell-based. Particulars: Rattus norvegicus.
The target in experiment [22] is T6, Rac GTPase-activating protein 1 (Homo sapiens, UniProt Q9H0H5).
T6 sequence (Q9H0H5 whole entry): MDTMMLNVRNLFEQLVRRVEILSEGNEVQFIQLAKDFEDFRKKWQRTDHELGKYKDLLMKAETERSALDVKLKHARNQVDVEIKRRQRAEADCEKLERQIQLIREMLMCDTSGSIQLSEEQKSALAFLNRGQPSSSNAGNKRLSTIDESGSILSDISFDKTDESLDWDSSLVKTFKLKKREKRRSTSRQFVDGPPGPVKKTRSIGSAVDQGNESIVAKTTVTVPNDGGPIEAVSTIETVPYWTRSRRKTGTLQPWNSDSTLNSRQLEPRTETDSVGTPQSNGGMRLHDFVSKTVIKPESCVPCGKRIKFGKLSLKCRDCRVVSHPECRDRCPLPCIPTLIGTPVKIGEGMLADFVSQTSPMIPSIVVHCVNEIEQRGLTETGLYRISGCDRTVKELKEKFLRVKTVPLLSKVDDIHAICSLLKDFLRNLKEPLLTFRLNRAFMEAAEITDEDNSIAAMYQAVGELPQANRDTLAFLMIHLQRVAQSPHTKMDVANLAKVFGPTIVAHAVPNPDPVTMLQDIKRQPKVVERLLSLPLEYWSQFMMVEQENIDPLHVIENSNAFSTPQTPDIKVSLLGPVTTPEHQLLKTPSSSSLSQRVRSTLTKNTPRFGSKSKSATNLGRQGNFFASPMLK
Nature of the experiment: MgcRacGAP GTPase-activating activity inhibitors, confirmation, biochemical, ADP Hunter fluorescence, primary and confirmatory (AID 624330). It is filed as functional.

The nature of experiment [23]: HeLa cell cytotoxicity, dose response, cytotoxicity control for MgcRacGAP inhibitor project (AID 624300). It is filed as functional.

Activity calls are given as the source filed them.

Mu-type opioid receptor, sequence (P35372 whole entry): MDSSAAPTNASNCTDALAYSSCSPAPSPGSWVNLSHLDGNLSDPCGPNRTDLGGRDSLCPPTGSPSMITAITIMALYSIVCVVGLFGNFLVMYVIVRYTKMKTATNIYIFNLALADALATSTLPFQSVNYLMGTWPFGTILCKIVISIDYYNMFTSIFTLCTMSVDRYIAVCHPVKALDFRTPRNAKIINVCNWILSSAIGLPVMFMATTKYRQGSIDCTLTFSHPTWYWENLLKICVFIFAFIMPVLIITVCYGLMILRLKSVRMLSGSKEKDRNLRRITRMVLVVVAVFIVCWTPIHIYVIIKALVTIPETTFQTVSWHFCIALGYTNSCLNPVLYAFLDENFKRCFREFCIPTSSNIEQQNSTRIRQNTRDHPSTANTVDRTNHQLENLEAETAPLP
Fructose-bisphosphate aldolase, sequence (P9WQA3 whole entry): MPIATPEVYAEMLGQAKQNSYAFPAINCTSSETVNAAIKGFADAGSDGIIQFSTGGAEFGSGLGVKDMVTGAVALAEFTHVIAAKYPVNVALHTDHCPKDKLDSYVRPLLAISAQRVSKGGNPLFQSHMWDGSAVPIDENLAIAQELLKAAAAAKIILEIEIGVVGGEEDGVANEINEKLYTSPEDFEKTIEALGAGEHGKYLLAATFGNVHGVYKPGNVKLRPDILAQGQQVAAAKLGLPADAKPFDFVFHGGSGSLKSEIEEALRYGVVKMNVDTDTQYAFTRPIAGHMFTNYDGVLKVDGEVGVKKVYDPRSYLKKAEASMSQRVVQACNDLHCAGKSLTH
5-hydroxytryptamine receptor 2A, sequence (P35363 whole entry): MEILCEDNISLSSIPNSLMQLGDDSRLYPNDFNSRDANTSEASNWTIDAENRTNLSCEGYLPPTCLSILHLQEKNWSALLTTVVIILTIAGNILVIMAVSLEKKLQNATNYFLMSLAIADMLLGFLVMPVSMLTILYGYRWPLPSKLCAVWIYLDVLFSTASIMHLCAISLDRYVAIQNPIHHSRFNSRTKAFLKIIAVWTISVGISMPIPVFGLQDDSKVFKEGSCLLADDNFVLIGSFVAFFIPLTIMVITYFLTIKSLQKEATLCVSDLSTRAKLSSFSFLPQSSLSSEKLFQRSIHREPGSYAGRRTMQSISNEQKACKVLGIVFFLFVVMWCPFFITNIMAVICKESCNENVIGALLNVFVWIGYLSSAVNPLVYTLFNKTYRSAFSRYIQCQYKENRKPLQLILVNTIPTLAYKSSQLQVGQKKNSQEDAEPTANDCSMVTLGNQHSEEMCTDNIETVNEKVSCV
Phospholipase A2, sequence (P04054 whole entry): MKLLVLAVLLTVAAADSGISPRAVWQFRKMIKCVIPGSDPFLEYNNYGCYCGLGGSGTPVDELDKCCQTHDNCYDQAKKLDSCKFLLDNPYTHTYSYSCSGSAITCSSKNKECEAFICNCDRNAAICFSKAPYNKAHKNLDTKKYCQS

Regarding `N#CCCN(C(=O)COc1ccc(F)cc1Br)c1ccccc1F`, the IC50 in experiment [1] was > 9.99 µM (inactive).

As for `CCOc1ccc(C/C(=N/CCc2ccccc2)C2=C(O)CC(C)(C)CC2=O)cc1OCC`, the EC50 (usually the concentration giving half of the maximal effect) is 0.358 µM (active) in [2] and > 29.9 µM (inactive) in [5]. The IC50 was > 29.9 µM (inactive) in experiment [3] and 2.84 µM (active) in experiment [4].

With `COc1ccc2c3c([nH]c2c1)[C@@H](CO)N(C(=O)Nc1cccc(F)c1)CC31CN(S(=O)(=O)c2cccc(C)c2)C1`, the half-maximal activity concentration (AC50) (as a rule, the concentration at which the activity in the assay is half-maximal) is 23.1 µM (active) in experiment [6], 22.7 µM (active) in experiment [7], 14.9 µM (active) in experiment [8] and 24.2 µM (active) in experiment [9].

For the compound `COc1ccc2oc(C(=O)Nc3nc4ccccc4[nH]3)c(C)c2c1`, the EC50 in [10] is 76.1 µM (inactive); in [12] it was 2.61 µM (active); in [13] it was 92.5 µM (inactive); in experiment [14] it was 12 µM (active); in experiment [15], > 150 µM (not active). For the same compound, the CC50 – broadly, the concentration at which the toxic effect on the cells reaches its halfway point – in [11] was > 40 µM (active).

For the compound `CC(C)c1ccc2nc3sc(C(=O)N4CCc5ccccc5C4)c(N)c3cc2c1`, the AC50 in experiment [16] was 11.2 µM (inconclusive). Besides, the IC50 in experiment [17] was 4.83 µM (active); in experiment [18] it was 2.58 µM (active); in experiment [19] it was 7.08 µM (active); in experiment [20], 5.22 µM (active). Further, the values for the EC50 in [12], in experiment [14] and in experiment [15] were 25.6 µM (active), > 150 µM (not active) and 101 µM (active), respectively.

On to `CCc1nc(N2CCCCC2)c2oc3ccccc3c2n1`, for which the concentration at half-maximal activity (AC50) in experiment [6] was 41.8 µM (active); in [7] it was 30.8 µM (active).

For `Cc1ccc2c(c1)[nH]c1c(N3CCN(Cc4ccccc4)CC3)ncnc12`, the AC50 in experiment [21] is 3.89 µM (active). Besides, the IC50 in [22] was 47.8 µM (active). Also, in experiment [23], the cytotoxic concentration (CC50) is 57.9 µM (active).

Consider `Cn1c2c(c3ccccc31)CCN(CCCCN1CCN(c3ccccc3)CC1)C2=O`, for which the half-maximal effective concentration (EC50) in experiment [10] is 0.0455 µM (active); in [13] it was 92.4 µM (inactive).

Regarding `CCO[C@@H]1c2c(ccc3ccc(=O)oc23)OC(C)(C)[C@H]1O`, the IC50 in experiment [1] is > 1.11 µM (active).

In the case of `Cc1ccc2n(n1)c(=O)c(Cc1ccccc1)c([O-])[n+]2-c1ccccc1`, the IC50 is 16.8 µM (active) in [18] and 12.7 µM (active) in experiment [20].

The values above are taken from ChEMBL document CHEMBL1201862, “PubChem BioAssay data set” (2004).
